Experimental data: ChEMBL document CHEMBL3885861, “Open TG-GATES”

Organism: Rattus norvegicus
Assay: Open TG-GATES - Regimen: Daily Repeat
Assay type: toxicity, organism-based, Sprague-Dawley
Set-up: regimen Daily Repeat, gender Male, age 6 weeks
Details: in vivo, iv, route intravenous injection; for APTT / Bas / Eos / Fbg / Hb / Ht / Lym / MCH / MCHC / MCV / Mono / Neu / PT / Plat / RBC / Ret / WBC: tissue Blood; for KIDNEY_L / KIDNEY_R / KIDNEY_TOTAL: tissue Kidney; for LIVER: tissue Liver; for ALP / ALT / AST / BUN / CRE / Ca / Cl / DBIL / GLC / IP / K / LDH / Na / PL / RALB / TBIL / TC / TG / TP / gamma-GTP: tissue Plasma
[1] = 1000 mg/kg, 72 h, dose level Middle, time 3 day
[2] = 1000 mg/kg, […], dose level Middle, time 7 day
[3] = 1000 mg/kg, […], dose level Middle, time 14 day
[4] = 1000 mg/kg, […], dose level Middle, time 28 day
[5] = 2000 mg/kg, 72 h, dose level High, time 3 day
[6] = 2000 mg/kg, […], dose level High, time 7 day
[7] = 2000 mg/kg, […], dose level High, time 14 day
[8] = 2000 mg/kg, […], dose level High, time 28 day

## CC(=O)OCC1=C(C(=O)O)N2C(=O)[C@@H](NC(=O)Cc3cccs3)[C@H]2SC1 [CEPHALOTHIN]
[1]
  TERMINAL_BW: 236.8 g
  APTT: 22.6 s
  Bas: 0%
  Eos: 1%
  Fbg: 308.4 mg/dL
  Hb: 13.4 g/dL
  Ht: 38.7%
  Lym: 87.2%
  MCH: 21.3 pg
  MCHC: 34.7%
  MCV: 61.6 fL
  Mono: 2.6%
  Neu: 8.2%
  PT: 16 s
  Plat: 120.2 x10_4/uL
  RBC: 630.2 x10_4/ul
  Ret: 5%
  WBC: 80.1 x10_2/uL
  KIDNEY_L: 1 g
  KIDNEY_R: 1 g
  KIDNEY_TOTAL: 2 g
  LIVER: 10.2 g
  ALP: 1638.6 IU/L
  ALT: 44.6 IU/L
  AST: 71.2 IU/L
  BUN: 18 mg/dL
  CRE: 0.2 mg/dL
  Ca: 10.6 mg/dL
  Cl: 105.2 meq/L
  DBIL: 0 mg/dL
  GLC: 160 mg/dL
  IP: 7.1 mg/dL
  K: 4.5 meq/L
  LDH: 147.8 IU/L
  Na: 141.2 meq/L
  PL: 141.6 mg/dL
  RALB: 3 g/dL
  TBIL: 0.008 mg/dL
  TC: 85.2 mg/dL
  TG: 65.8 mg/dL
  TP: 5.5 g/dL
  gamma-GTP: 1.4 IU/L
[2]
  TERMINAL_BW: 261.5 g
  APTT: 21.6 s
  Bas: 0%
  Eos: 1.2%
  Fbg: 323 mg/dL
  Hb: 13.2 g/dL
  Ht: 38%
  Lym: 87.2%
  MCH: 20.7 pg
  MCHC: 34.8%
  MCV: 59.3 fL
  Mono: 2.2%
  Neu: 9%
  PT: 17 s
  Plat: 135.9 x10_4/uL
  RBC: 640.6 x10_4/ul
  Ret: 5.5%
  WBC: 90.6 x10_2/uL
  KIDNEY_L: 1.1 g
  KIDNEY_R: 1.1 g
  KIDNEY_TOTAL: 2.3 g
  LIVER: 12.2 g
  ALP: 1283 IU/L
  ALT: 35.4 IU/L
  AST: 64.4 IU/L
  BUN: 16.2 mg/dL
  CRE: 0.2 mg/dL
  Ca: 11 mg/dL
  Cl: 105.4 meq/L
  DBIL: 0.002 mg/dL
  GLC: 171.8 mg/dL
  IP: 7.3 mg/dL
  K: 4.2 meq/L
  LDH: 148.4 IU/L
  Na: 141.6 meq/L
  PL: 134.6 mg/dL
  RALB: 3 g/dL
  TBIL: 0.02 mg/dL
  TC: 70.4 mg/dL
  TG: 94.6 mg/dL
  TP: 5.6 g/dL
  gamma-GTP: 1.8 IU/L
[3]
  TERMINAL_BW: 302.8 g
  APTT: 23.4 s
  Bas: 0%
  Eos: 0.8%
  Fbg: 260.8 mg/dL
  Hb: 13.9 g/dL
  Ht: 39%
  Lym: 89.2%
  MCH: 20.2 pg
  MCHC: 35.6%
  MCV: 56.6 fL
  Mono: 2.2%
  Neu: 6.8%
  PT: 16.2 s
  Plat: 123.9 x10_4/uL
  RBC: 689.8 x10_4/ul
  Ret: 5%
  WBC: 109.6 x10_2/uL
  KIDNEY_L: 1.2 g
  KIDNEY_R: 1.3 g
  KIDNEY_TOTAL: 2.5 g
  LIVER: 12.7 g
  ALP: 1231.6 IU/L
  ALT: 35.2 IU/L
  AST: 66.4 IU/L
  BUN: 15.6 mg/dL
  CRE: 0.2 mg/dL
  Ca: 10.5 mg/dL
  Cl: 106 meq/L
  DBIL: 0 mg/dL
  GLC: 170.2 mg/dL
  IP: 6.7 mg/dL
  K: 4.2 meq/L
  LDH: 96.2 IU/L
  Na: 140.6 meq/L
  PL: 143 mg/dL
  RALB: 3 g/dL
  TBIL: 0.01 mg/dL
  TC: 73.6 mg/dL
  TG: 109.8 mg/dL
  TP: 5.6 g/dL
  gamma-GTP: 2.4 IU/L
[4]
  TERMINAL_BW: 376.7 g
  APTT: 24.8 s
  Bas: 0%
  Eos: 1.4%
  Fbg: 294.4 mg/dL
  Hb: 14.9 g/dL
  Ht: 40.5%
  Lym: 88.2%
  MCH: 19.6 pg
  MCHC: 36.8%
  MCV: 53.1 fL
  Mono: 1.8%
  Neu: 7.6%
  PT: 16.2 s
  Plat: 113.8 x10_4/uL
  RBC: 762.8 x10_4/ul
  Ret: 2.8%
  WBC: 98 x10_2/uL
  KIDNEY_L: 1.4 g
  KIDNEY_R: 1.4 g
  KIDNEY_TOTAL: 2.8 g
  LIVER: 14.6 g
  ALP: 1075.4 IU/L
  ALT: 31 IU/L
  AST: 62 IU/L
  BUN: 16.6 mg/dL
  CRE: 0.2 mg/dL
  Ca: 10.4 mg/dL
  Cl: 106.6 meq/L
  DBIL: 0.004 mg/dL
  GLC: 175.4 mg/dL
  IP: 5.9 mg/dL
  K: 4.2 meq/L
  LDH: 148 IU/L
  Na: 142.4 meq/L
  PL: 135.4 mg/dL
  RALB: 3.1 g/dL
  TBIL: 0.018 mg/dL
  TC: 67.6 mg/dL
  TG: 116.4 mg/dL
  TP: 5.9 g/dL
  gamma-GTP: 1.2 IU/L
[5]
  TERMINAL_BW: 233 g
  APTT: 22.3 s
  Bas: 0%
  Eos: 1.2%
  Fbg: 311.4 mg/dL
  Hb: 13.7 g/dL
  Ht: 38.7%
  Lym: 87.2%
  MCH: 21.3 pg
  MCHC: 35.3%
  MCV: 60.3 fL
  Mono: 2.2%
  Neu: 9%
  PT: 16.2 s
  Plat: 128.7 x10_4/uL
  RBC: 642 x10_4/ul
  Ret: 4.9%
  WBC: 71.5 x10_2/uL
  KIDNEY_L: 1 g
  KIDNEY_R: 1 g
  KIDNEY_TOTAL: 2.1 g
  LIVER: 10.2 g
  ALP: 1558.6 IU/L
  ALT: 43 IU/L
  AST: 72.2 IU/L
  BUN: 17.6 mg/dL
  CRE: 0.2 mg/dL
  Ca: 10.4 mg/dL
  Cl: 106 meq/L
  DBIL: 0.004 mg/dL
  GLC: 173.6 mg/dL
  IP: 7.5 mg/dL
  K: 4.4 meq/L
  LDH: 152.4 IU/L
  Na: 141.6 meq/L
  PL: 132.8 mg/dL
  RALB: 3.1 g/dL
  TBIL: 0.03 mg/dL
  TC: 80.6 mg/dL
  TG: 40.4 mg/dL
  TP: 5.5 g/dL
  gamma-GTP: 1.8 IU/L
[6]
  TERMINAL_BW: 255 g
  APTT: 22.8 s
  Bas: 0%
  Eos: 0.8%
  Fbg: 347.2 mg/dL
  Hb: 13.4 g/dL
  Ht: 38.1%
  Lym: 83.8%
  MCH: 20.8 pg
  MCHC: 35.1%
  MCV: 59.4 fL
  Mono: 2.4%
  Neu: 12.4%
  PT: 16.7 s
  Plat: 132.5 x10_4/uL
  RBC: 642.8 x10_4/ul
  Ret: 6.3%
  WBC: 96.8 x10_2/uL
  KIDNEY_L: 1.1 g
  KIDNEY_R: 1.1 g
  KIDNEY_TOTAL: 2.2 g
  LIVER: 12 g
  ALP: 1549.6 IU/L
  ALT: 42.4 IU/L
  AST: 71.2 IU/L
  BUN: 19.6 mg/dL
  CRE: 0.2 mg/dL
  Ca: 10.8 mg/dL
  Cl: 107.6 meq/L
  DBIL: 0 mg/dL
  GLC: 169.2 mg/dL
  IP: 7 mg/dL
  K: 4.5 meq/L
  LDH: 152.8 IU/L
  Na: 141.6 meq/L
  PL: 138.6 mg/dL
  RALB: 3 g/dL
  TBIL: 0.008 mg/dL
  TC: 69.8 mg/dL
  TG: 103.2 mg/dL
  TP: 5.6 g/dL
  gamma-GTP: 2 IU/L
[7]
  TERMINAL_BW: 294.7 g
  APTT: 23.6 s
  Bas: 0%
  Eos: 1%
  Fbg: 269.2 mg/dL
  Hb: 14.4 g/dL
  Ht: 40.1%
  Lym: 84.6%
  MCH: 20.7 pg
  MCHC: 35.9%
  MCV: 57.5 fL
  Mono: 2%
  Neu: 12%
  PT: 16 s
  Plat: 117.3 x10_4/uL
  RBC: 695.2 x10_4/ul
  Ret: 5%
  WBC: 118.2 x10_2/uL
  KIDNEY_L: 1.2 g
  KIDNEY_R: 1.2 g
  KIDNEY_TOTAL: 2.4 g
  LIVER: 12.9 g
  ALP: 1210 IU/L
  ALT: 40.6 IU/L
  AST: 72 IU/L
  BUN: 18.6 mg/dL
  CRE: 0.2 mg/dL
  Ca: 10.6 mg/dL
  Cl: 106.2 meq/L
  DBIL: 0 mg/dL
  GLC: 176.8 mg/dL
  IP: 6.3 mg/dL
  K: 4.3 meq/L
  LDH: 142.8 IU/L
  Na: 141.4 meq/L
  PL: 142.4 mg/dL
  RALB: 3.1 g/dL
  TBIL: 0.018 mg/dL
  TC: 73.6 mg/dL
  TG: 110.2 mg/dL
  TP: 5.8 g/dL
  gamma-GTP: 2.4 IU/L
[8]
  TERMINAL_BW: 341.3 g
  APTT: 24.6 s
  Bas: 0%
  Eos: 1.6%
  Fbg: 283.8 mg/dL
  Hb: 15.6 g/dL
  Ht: 42.2%
  Lym: 84.8%
  MCH: 19.6 pg
  MCHC: 37%
  MCV: 52.9 fL
  Mono: 2.4%
  Neu: 10.8%
  PT: 16.1 s
  Plat: 100.5 x10_4/uL
  RBC: 797.8 x10_4/ul
  Ret: 3.2%
  WBC: 103.9 x10_2/uL
  KIDNEY_L: 1.4 g
  KIDNEY_R: 1.4 g
  KIDNEY_TOTAL: 2.7 g
  LIVER: 13.8 g
  ALP: 899.6 IU/L
  ALT: 38 IU/L
  AST: 69.2 IU/L
  BUN: 16 mg/dL
  CRE: 0.2 mg/dL
  Ca: 10.4 mg/dL
  Cl: 106.2 meq/L
  DBIL: 0.002 mg/dL
  GLC: 166.8 mg/dL
  IP: 5.6 mg/dL
  K: 4.1 meq/L
  LDH: 105.2 IU/L
  Na: 142.6 meq/L
  PL: 129.8 mg/dL
  RALB: 3.2 g/dL
  TBIL: 0.034 mg/dL
  TC: 62.4 mg/dL
  TG: 93.8 mg/dL
  TP: 6.1 g/dL
  gamma-GTP: 1.8 IU/L
